Values after ≈ are worked out from the molar mass of the structure shown.

The nature of data set [1]: physchem. It counts as physicochemical. The note with it: 60 °C, water. Here is the method: In Step S42, preheat 60 mL of furfuryl alcohol below 60° C. for approximately 15 minutes. In Step S43, mix the furfuryl alcohol and the saturated sucrose solution in a ratio of 1:1, and stir the mixed solution uniformly by a rotation speed of 500 rpm. In Step S44, maintain the mixed solution at 60° C., and crystal starts forming after approximately 4 to 5 hours. In Step S45, turn off the power of the constant-temperature water tank, and lower the temperature to room temperature naturally, and maintain this state for three days until the crystallization completes, and filter the mixed solution, and rinse the recrystallized sucrose by ethyl alcohol or acetone, and bake the crystal sucrose in a vacuum oven at 40° C. for 24 hours to obtain a Form II sucrose of a new conformational polymorph in accordance with the present invention.

Data set [2] can be described thus: physchem. It counts as physicochemical. The settings on record: 25 °C.

In the case of `OC[C@H]1O[C@@](CO)(O[C@H]2O[C@H](CO)[C@@H](O)[C@H](O)[C@H]2O)[C@@H](O)[C@@H]1O` [Form I sucrose, sucrose], the solubility is 2870 mg/mL (≈ 8390 mM) in “physchem [1]” and 1850 to 1950 mg/mL (≈ 5400 to 5700 mM) in “physchem [2]”.
